Earlier results, collected in US4337247A, “Tetrapeptidesemicarbazide derivatives and their production and use” (Takeda Chemical Industries, Ltd., priority 1979, dated 1982).

Conditions: for morphinomimetic activity: direct intracerebral administration; for analgesic effect: intravenous route

Substance | morphinomimetic activity | analgesic effect
H-Tyr-Gly-Gly-Phe-Met-OH (H-YGGFM-OH) [enkephalin, pentapeptide isolated from the pig brain] | show morphinomimetic activity | do not produce analgesic effects
H-Tyr-Gly-Gly-Phe-Leu-OH | show morphinomimetic activity | do not produce analgesic effects
β-endorphine (YGGFMTSEKSQTPLVTLFKNAIIKNAYKKGE; Beta-endorphin; UniProt P01189 237-267, looked up) [polypeptide consisting of 31 amino acids, considered to be derived from the carboxy-terminal of β-lipotrophine] |  | displays an overt analgesic action
